Measurements as given in PubChem BioAssay (NCI).
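Step 1: Grow cells in 96-well plates. Step 2: Expose to compound for 48 hours at 5 concentrations. Step 3: Interpolate endpoints linearly; if unreached, use highest concentration. TGI: concentration producing complete growth inhibition.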

What was measured:
Experiment in all cases: NCI-60 cell line screen, 48 h
[1] = system: 786-0 renal
[2] = system: A498 renal
[3] = system: A549 NSCLC
[4] = system: ACHN renal
[5] = system: BT-549 breast
[6] = system: CAKI-1 renal
[7] = system: CCRF-CEM leukemia
[8] = system: COLO 205 colon
[9] = system: DU-145 prostate
[10] = system: EKVX NSCLC
[11] = system: HCC-2998 colon
[12] = system: HCT-116 colon
[13] = system: HCT-15 colon
[14] = system: HL-60(TB) leukemia
[15] = system: HOP-62 NSCLC
[16] = system: HOP-92 NSCLC
[17] = system: HS 578T breast
[18] = system: HT29 colon
[19] = system: IGROV1 ovarian
[20] = system: KM12 colon
[21] = system: LOX IMVI melanoma
[22] = system: M14 melanoma
[23] = system: MALME-3M melanoma
[24] = system: MCF7 breast
[25] = system: MDA-MB-231 breast
[26] = system: MDA-MB-435
[27] = system: MDA-N
[28] = system: MOLT-4 leukemia
[29] = system: NCI-H226 lung
[30] = system: NCI-H23 lung
[31] = system: NCI-H460 lung
[32] = system: NCI-H522 lung
[33] = system: NCI/ADR-RES ovarian
[34] = system: OVCAR-3 ovarian
[35] = system: OVCAR-4 ovarian
[36] = system: OVCAR-5 ovarian
[37] = system: OVCAR-8 ovarian
[38] = system: PC-3 prostate
[39] = system: RPMI-8226 leukemia
[40] = system: RXF 393 renal
[41] = system: SF-268 CNS
[42] = system: SF-295 CNS
[43] = system: SF-539 CNS
[44] = system: SK-MEL-2 melanoma
[45] = system: SK-MEL-28 melanoma
[46] = system: SK-MEL-5 melanoma
[47] = system: SK-OV-3 ovarian
[48] = system: SN12C renal
[49] = system: SNB-19 CNS
[50] = system: SNB-75 CNS
[51] = system: SR leukemia
[52] = system: SW-620 colon
[53] = system: T-47D breast
[54] = system: TK-10 renal
[55] = system: U251 CNS
[56] = system: UACC-257 melanoma
[57] = system: UACC-62 melanoma
[58] = system: UO-31 renal

Q: Which TGI [1] does the source give for CCCCCCCCCCCCCCCCNc1nc(=O)n(C2OC(C)C(O)C2O)cc1F (stereo not drawn) here?
A: The TGI was 35.6 µM.

Q: And the TGI [2]?
A: The TGI was 39.1 µM.

Q: What about the TGI [3] of the same compound?
A: Its TGI is 48 µM.

Q: And the TGI [4]?
A: The TGI was 29 µM.

Q: And the TGI [5]?
A: Its TGI is 35.1 µM.

Q: And the TGI [6]?
A: The TGI was 41.8 µM.

Q: What about the TGI [7] of the same compound?
A: Its TGI is 42.6 µM.

Q: And the TGI [8]?
A: Its TGI is 58.7 µM.

Q: And the TGI [9]?
A: Its TGI is 36 µM.

Q: What about the TGI [10] of the same compound?
A: Its TGI is 35.3 µM.

Q: And the TGI [11]?
A: The TGI was 31 µM.

Q: What about the TGI [12] of the same compound?
A: The TGI was 36.7 µM.

Q: What about the TGI [13] of the same compound?
A: The TGI was 29.1 µM.

Q: What about the TGI [14] of the same compound?
A: The TGI was 75.1 µM.

Q: What about the TGI [15] of the same compound?
A: Its TGI is 33.8 µM.

Q: What about the TGI [16] of the same compound?
A: The TGI was 45.7 µM.

Q: And the TGI [17]?
A: Its TGI is 56.3 µM.

Q: And the TGI [18]?
A: The TGI was 31.2 µM.

Q: What about the TGI [19] of the same compound?
A: The TGI was 37.6 µM.

Q: And the TGI [20]?
A: The TGI was 36.3 µM.

Q: What about the TGI [21] of the same compound?
A: The TGI was 55.5 µM.

Q: And the TGI [22]?
A: Its TGI is 33.5 µM.

Q: What about the TGI [23] of the same compound?
A: Its TGI is 40.7 µM.

Q: What about the TGI [24] of the same compound?
A: The TGI was 33 µM.

Q: What about the TGI [25] of the same compound?
A: The TGI was 42 µM.

Q: And the TGI [26]?
A: The TGI was 30.5 µM.

Q: And the TGI [27]?
A: The TGI was 39.3 µM.

Q: And the TGI [28]?
A: The TGI was 62.2 µM.

Q: What about the TGI [29] of the same compound?
A: Its TGI is 40.6 µM.

Q: And the TGI [30]?
A: The TGI was 32.7 µM.

Q: What about the TGI [31] of the same compound?
A: The TGI was 33.9 µM.

Q: And the TGI [32]?
A: The TGI was 39 µM.

Q: What about the TGI [33] of the same compound?
A: Its TGI is 43.8 µM.

Q: What about the TGI [34] of the same compound?
A: Its TGI is 34.8 µM.

Q: What about the TGI [35] of the same compound?
A: The TGI was 50.8 µM.

Q: What about the TGI [36] of the same compound?
A: The TGI was 36.7 µM.

Q: And the TGI [37]?
A: The TGI was 52.6 µM.

Q: And the TGI [38]?
A: Its TGI is 28.1 µM.

Q: What about the TGI [39] of the same compound?
A: Its TGI is 33.9 µM.

Q: And the TGI [40]?
A: Its TGI is 44.8 µM.

Q: What about the TGI [41] of the same compound?
A: Its TGI is 44.5 µM.

Q: And the TGI [42]?
A: Its TGI is 43 µM.

Q: And the TGI [43]?
A: The TGI was 33.5 µM.

Q: And the TGI [44]?
A: The TGI was 38.9 µM.

Q: What about the TGI [45] of the same compound?
A: Its TGI is 37.5 µM.

Q: What about the TGI [46] of the same compound?
A: The TGI was 43.4 µM.

Q: What about the TGI [47] of the same compound?
A: Its TGI is 37.4 µM.

Q: And the TGI [48]?
A: Its TGI is 40.6 µM.

Q: And the TGI [49]?
A: The TGI was 39.7 µM.

Q: What about the TGI [50] of the same compound?
A: The TGI was 33.1 µM.

Q: What about the TGI [51] of the same compound?
A: The TGI was over 100 µM.

Q: And the TGI [52]?
A: The TGI was 46.8 µM.

Q: What about the TGI [53] of the same compound?
A: Its TGI is 43.8 µM.

Q: What about the TGI [54] of the same compound?
A: The TGI was 30.6 µM.

Q: What about the TGI [55] of the same compound?
A: Its TGI is 54.4 µM.

Q: What about the TGI [56] of the same compound?
A: Its TGI is 35.5 µM.

Q: What about the TGI [57] of the same compound?
A: Its TGI is 29 µM.

Q: What about the TGI [58] of the same compound?
A: Its TGI is 27.2 µM.
